Data reported in DBAASP.
In brackets after ≈: the same amount, converted by molar mass.

What was measured:
Test in all cases: ≥ marks a high value that may be exact or a test limit, other limits are often not marked, values filed in µg/mL are converted to µM
Escherichia coli BL21 = system: Escherichia coli BL21
[1] = system: Pasteurella multocida ATCC 6529
[2] = system: Salmonella enterica subsp. enterica serovar Choleraesuis CVCC 2140
[3] = system: Bacillus cereus ATCC 9193
[4] = system: Staphylococcus aureus ATCC 29213
[5] = system: Staphylococcus epidermidis ATCC 12228
[6] = system: Staphylococcus aureus VRSA1
[7] = system: Staphylococcus aureus VISA3
[8] = system: Klebsiella pneumoniae NCIMB 9111
[9] = system: Candida albicans ATCC 24433
[10] = system: Staphylococcus aureus VISA1
[11] = system: Staphylococcus aureus VRSA2
[12] = system: Enterococcus faecalis ATCC 29212
[13] = system: Micrococcus luteus ATCC 10240
[14] = system: Enterococcus faecium BCRC 15B0132
[15] = system: Staphylococcus aureus ATCC 25923
[16] = system: Candida albicans ATCC 10259
[17] = system: Pseudomonas aeruginosa ATCC 27853

MIC (Escherichia coli BL21) [µM] | MIC [1] [µM] | MIC [3] [µM] | MIC [4] [µM] | MIC [5] [µM] | MIC [6] [µM] | MIC [7] [µM] | MIC [8] [µM] | MIC [9] [µM] | MIC [10] [µM] | MIC [11] [µM] | MIC [12] [µM] | MIC [13] [µM] | MIC [14] [µM] | MIC [15] [µM] | MIC [16] [µM] | MIC [17] [µM] | SMILES | MIC [2] [µM]
≥ 57.4 | 14.4 | 0.97 | 3.66 |  |  |  |  |  |  |  |  |  |  |  |  |  | CC(C)C[C@@H]1NC(=O)CNC(=O)CNC(=O)[C@H](Cc2cnc[nH]2)NC(=O)[C@@H]2CSSC[C@@H]3NC(=O)[C@H](Cc4ccccc4)NC(=O)[C@H](CC(N)=O)NC(=O)CNC(=O)[C@H](CCC(N)=O)NC(=O)[C@H](CO)NC(=O)[C@H](CCCN=C(N)N)NC(=O)[C@@H](NC(=O)[C@H](C)NC(=O)[C@H](C)NC(=O)[C@@H](NC(=O)[C@H](CC(=O)O)NC(=O)[C@H](C)NC(=O)[C@H](Cc4ccccc4)NC(=O)[C@@H]4CCCN4C(=O)[C@H](C)NC(=O)[C@H](CC(=O)O)NC(=O)[C@H](C)NC(=O)[C@H](CO)NC(=O)CNC(=O)[C@@H]4CCCN4C(=O)[C@H](C)NC(=O)[C@H](C)NC(=O)[C@H](CCC(N)=O)NC(=O)[C@H](Cc4ccccc4)NC(=O)[C@H](CC(C)C)NC(=O)[C@H](Cc4ccccc4)NC(=O)[C@H](CC(C)C)NC(=O)[C@H](CC(C)C)NC(=O)[C@@H](N)C(C)C)[C@@H](C)O)CSSC[C@H](NC(=O)[C@H](CC(N)=O)NC(=O)[C@H](CC(C)C)NC1=O)C(=O)N[C@H](C(=O)N[C@@H](C)C(=O)N[C@@H](CCCCN)C(=O)O)CSSC[C@H](NC(=O)[C@H](C)NC(=O)CNC(=O)[C@H](C)NC(=O)[C@H](CCCN=C(N)N)NC3=O)C(=O)N1CCC[C@H]1C(=O)N1CCC[C@H]1C(=O)N[C@@H]([C@@H](C)O)C(=O)N[C@@H](Cc1ccccc1)C(=O)N[C@@H](C)C(=O)N[C@@H](C)C(=O)N[C@@H](CO)C(=O)NCC(=O)N[C@@H](CO)C(=O)N2 [VLLFLFQAAPGSADAPFADTAACRSQGNFCRAGACPPTFAASGSCHGGLLNCCAK] | ≥ 73.2
 |  |  |  | 20.8 (≈ 33.4 µg/mL) | ≥ 40.9 | ≥ 40.9 | ≥ 320 | ≥ 47.9 | ≥ 40.9 | ≥ 40.9 | 10.2 (≈ 16.4 µg/mL) | ≥ 47.9 | ≥ 40.9 | 20.8 (≈ 33.4 µg/mL) | ≥ 47.9 | 320 (≈ 513 µg/mL) | CC(=O)N[C@@H](C)C(=O)N[C@@H](CCCCN)C(=O)N[C@@H](CCCN=C(N)N)C(=O)N[C@@H](Cc1cnc[nH]1)C(=O)N[C@@H](Cc1cnc[nH]1)C(=O)NCC(=O)N[C@@H](Cc1ccc(O)cc1)C(=O)N[C@@H](CCCCN)C(=O)N[C@@H](CCCN=C(N)N)C(=O)N[C@@H](CCCCN)C(=O)N[C@@H](Cc1ccccc1)C(=O)N[C@@H](Cc1cnc[nH]1)C(N)=O [AKRHHGYKRKFH] | 
